Test results: ChEMBL document CHEMBL1158743, “Tenellones A and B from a Diaporthe sp.: two highly substituted benzophenone inhibitors of parasite cGMP-dependent protein kinase activity” (J Nat Prod, 2005)
In brackets after ≈: the same amount, converted by molar mass. Activity calls are given as the source filed them. No cut-off for these calls is given here.

Columns and labels:
[1] = species: Gallus gallus; assay: Toxicity to Eimera tenella infected chickens given ad libitum at 100 ppm; type: organism-based; conditions: chicken, in vivo, po
[2] = system: Eimeria tenella; assay: Antiparasitic activity against Eimera tenella infected in chickens given ad libitum at 100 ppm fed with diet; type: functional, organism-based
[3] = molecular target: cGMP-dependent protein kinase (Eimeria tenella, UniProt Q8MMZ8); assay: Inhibition of Eimera tenella CGMP-dependent protein kinase by radiometric assay
[4] = system: Toxoplasma gondii; assay: Antiparasitic activity against Toxoplasma gondii infected in human foreskin fibroblasts assessed as beta-galactosidase activity after 5 days by whole cell assay; type: functional, organism-based; conditions: 120 h
[5] = system: Staphylococcus aureus; assay: Antibacterial activity against Staphylococcus aureus; type: functional
[6] = system: Enterococcus faecium; assay: Antibacterial activity against Enterococcus faecium; type: functional

Sequence of cGMP-dependent protein kinase (Q8MMZ8 whole entry): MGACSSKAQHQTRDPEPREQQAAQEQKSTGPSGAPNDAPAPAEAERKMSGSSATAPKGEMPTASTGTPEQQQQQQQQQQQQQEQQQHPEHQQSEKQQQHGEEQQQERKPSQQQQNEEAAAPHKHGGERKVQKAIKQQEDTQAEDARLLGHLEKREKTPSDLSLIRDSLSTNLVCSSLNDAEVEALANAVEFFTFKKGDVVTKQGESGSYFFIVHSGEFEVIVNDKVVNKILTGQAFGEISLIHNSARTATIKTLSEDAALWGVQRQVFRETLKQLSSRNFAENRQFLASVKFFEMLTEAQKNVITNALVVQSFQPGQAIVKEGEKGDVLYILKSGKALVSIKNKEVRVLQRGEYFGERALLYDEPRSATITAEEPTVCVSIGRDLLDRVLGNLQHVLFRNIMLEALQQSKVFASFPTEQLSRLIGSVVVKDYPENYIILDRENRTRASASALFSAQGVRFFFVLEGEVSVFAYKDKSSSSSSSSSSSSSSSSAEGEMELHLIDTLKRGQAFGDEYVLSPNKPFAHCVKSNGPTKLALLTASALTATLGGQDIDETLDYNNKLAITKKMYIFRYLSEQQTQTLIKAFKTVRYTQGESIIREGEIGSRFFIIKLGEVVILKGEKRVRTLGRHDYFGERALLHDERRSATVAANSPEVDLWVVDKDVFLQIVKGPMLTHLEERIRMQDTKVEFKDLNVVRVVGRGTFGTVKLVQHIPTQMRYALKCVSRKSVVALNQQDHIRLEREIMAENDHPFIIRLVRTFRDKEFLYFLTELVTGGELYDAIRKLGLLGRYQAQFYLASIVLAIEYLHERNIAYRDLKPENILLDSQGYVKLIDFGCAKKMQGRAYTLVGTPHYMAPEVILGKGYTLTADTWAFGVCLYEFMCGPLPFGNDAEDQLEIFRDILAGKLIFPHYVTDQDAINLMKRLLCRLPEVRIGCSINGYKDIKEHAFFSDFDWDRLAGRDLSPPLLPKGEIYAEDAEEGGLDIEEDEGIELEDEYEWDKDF

SMILES | Activity [1] | Activity [2] | IC50 [3] [µM] | IC50 [4] [µM] | MIC [5] [µg/mL] | MIC [6] [µg/mL]
CC(C)=CCc1ccc(O)c(C=O)c1C(=O)c1cc(C)cc(OCC(O)C(C)(C)O)c1O (stereo not given) [TENELLONE A] | Non-toxic | inactive | 12.6 | 1.8 |  | 
COc1c(Cl)c(C)c(Cl)c(O)c1C(=O)c1c(C=O)c(O)cc(O)c1CC=C(C)C [PESTALONE] |  |  |  |  | 0.037 (≈ 0.0842 µM) | 0.078 (≈ 0.178 µM)
CN1CCC(c2cc(-c3ccncc3)c(-c3ccc(F)cc3)[nH]2)CC1 |  |  | < 0.001 |  |  | 
CC(C)=CCc1ccc(O)c(C=O)c1C(=O)c1cc(C)cc2c1OC(C(C)(C)O)CO2 (stereo not given) [TENELLONE B] | Non-toxic | inactive | 8.7 |  |  | 
